{
  "source": "patent US11253514B2",
  "about": "“Triple combination of pure 5-HT6 receptor antagonists, acetylcholinesterase inhibitors and NMDA receptor antagonist” (priority 2016, dated 2022)",
  "biological_target": "human recombinant 5-HT2A receptor (Homo sapiens (Human), UniProt P28223)",
  "assay": "Determination of Ki value at 5-HT2A receptor ([3H]-Ketanserine radioligand binding)",
  "procedure": "Determination of Ki Value at 5-HT2A Receptor\nCompound was tested according to the following procedures.\nReceptor source: Recombinant mammalian cells\nRadioligand: [^3H]-Ketanserine (47.3 Ci/mmol)\nFinal ligand concentration—[1.75 nM]\nNon-Specific Ligand: 0.1 mM 1-Naphthylpiperazine (1-NP)\nReference compound: 1-Naphthylpiperazine (1-NP)\nPositive control: 1-Naphthylpiperazine (1-NP)\nIncubation conditions: Reactions were carried out in 67 mM Tris-HCl (pH 7.4) for 1 hour at 37° C. The reaction was terminated by rapid vacuum filtration onto the glass fiber filters. Radioactivity trapped onto the filters was determined and compared to the control values in order to ascertain any interactions of the test compound(s) with the cloned serotonin 5-HT2A binding site. Reference: Methods in Molecular Biology, 2002, 190, 31-49 Results:\n. The Ki values tabulated below are average of three independent experiments.",
  "note": "pKi: −log10 of the molar value. Counter-ions that a name gives are not always drawn.",
  "data": [
    {"compound": "COc1ccc2c(c1)c(CN1CCN(C)CC1)cn2S(=O)(=O)c1ccc(F)cc1", "note": "[Compound 2, 1-[(4-Fluorophenyl)sulfonyl]-5-methoxy-3-[(4-methyl-1-piperazinyl)methyl]-1H-indole dihydrochloride]", "values": [
      {"measurement": "pKi", "result": "< 5.00"}
    ]}
  ]
}
